Assay results published in article PMC10743086, “Immunofluorescence-Based Assay for High-Throughput Analysis of Multidrug Resistance Markers in Non-Small Cell Lung Carcinoma Patient-Derived Cells” (Diagnostics, 2023).

How the values were obtained:
Type in all cases: cell-based, human
[1] = tested on: Cancer cells (CK8/18+) of patient-derived NSCLC cultures; experiment: Cytotoxicity in patient-derived NSCLC cultures, cancer cells; conditions: Homo sapiens, 168 h, 7 days treatment
Procedure: (§1) Tissue samples were collected during surgery, and the NSCLC diagnosis, histological grade, stage, necrosis, and lymph node invasion status were determined by histopathological analysis. […] The surgical specimens were placed in a sterile tube containing antibiotic-antimycotic solution (Sigma-Aldrich Chemie GmbH, Taufkirchen, Germany) and immediately transported to the research laboratory for further processing.
(§2) Upon arrival, the tissue was manually chopped with a surgical blade in a Petri dish under sterile conditions. The samples were cut into 3–5 mm pieces and further dissociated using the Tumor Dissociation Kit (Miltenyi Biotec, Bergisch Gladbach, Germany). The Tumor Dissociation Kit was used to dissociate the cells from the tumor tissue according to the manufacturer’s instructions. The samples were incubated in a 37 °C orbital shaker (KS 4000 ic control, IKA, Königswinter, Germany) at 300 rpm for 90 min. After incubation, the dissociated tissue was placed in DMEM/Ham’s F12 (1:3 ratio) growth medium supplemented with 5% fetal bovine serum (Corning, NY, USA), antibiotic-antimycotic solution, 4 µg/mL hydrocortisone (Sigma-Aldrich Chemie GmbH, Taufkirchen, Germany), 1 µg/mL insulin (Sigma-Aldrich Chemie GmbH, Taufkirchen, Germany), 10 ng/mL epidermal growth factor (BioLegend, San Diego, CA, USA), and 24 µg/mL adenine (Sigma-Aldrich Chemie GmbH, Taufkirchen, Germany). The DMEM and Ham’s F12 growth media were purchased from Sigma-Aldrich Chemie GmbH (Taufkirchen, Germany).
(§3) The dissociated tissue was cultured in T-25 cell culture flasks until cell attachment was observed before the medium was replaced. If no cell attachment was achieved within 7 days, the sample was discarded. Successful patient-derived cultures were maintained at 37 °C in a humidified atmosphere with 5% CO2 and grown to confluence before undergoing further experiments. […] Partial trypsinization was performed by detaching the fibroblast-like cells with 1 mL of 0.05% trypsin for 1 min at 37 °C, followed by 2 min at room temperature (RT).
(§4) Vinorelbine and pemetrexed were purchased from Selleckchem (Houston, TX, USA). Carboplatin, cisplatin, docetaxel, etoposide, gemcitabine, gefitinib, and paclitaxel were purchased from Sigma-Aldrich Chemie GmbH (Taufkirchen, Germany). The cisplatin, carboplatin, and gemcitabine were dissolved in sterile water, while the etoposide, docetaxel, vinorelbine, paclitaxel, gefitinib, and pemetrexed were dissolved in DMSO and stored at −20 °C. Before treatment, all the stock solutions were freshly diluted in sterile water.
(§5) The primary cells were seeded in black, clear bottom 384-well cell culture microplates (Thermo Fisher Scientific, Waltham, MA, USA) in 50 µL of cell growth medium at a density of 1000 cells per well. The compounds were administered 72 h after seeding. The treatment lasted 7 days.
(§6) The immunofluorescence assay for the quantification of MDR markers was optimized to distinguish cancer cells from stromal cells using a cytokeratin 8/18 (CK8/18) antibody cocktail. The cells were fixed with 4% paraformaldehyde for 20 min at RT and washed three times with PBS using the Wellwash Versa microplate washer (Thermo Fisher Scientific, Waltham, MA, USA). The cells were then blocked with 2% bovine serum albumin (BSA) in PBS for 1 h at RT. […] Co-immunostaining with antibodies against MDR markers was performed to detect the presence of ABCB1, ABCC1, and ABCG2 in both the cancer and stromal cells. […] The secondary antibodies were incubated with the cells at RT for 2 h in the dark. […] Finally, the cells were washed three times with PBS and stored at 4 °C in the dark before imaging.

[2] = tested on: ABCB1 expression in MRC-5 cells; experiment: Immunofluorescence assay of MDR marker ABCB1 expression; conditions: five concentrations, 24 h
Procedure: as §4
(§7) The compounds were administered 48 h after seeding. The treatment lasted 24 h.
as §6
(§8) The fluorescently labeled cells were imaged using the ImageXpress Pico Automated Cell Imaging System (Molecular Devices, San Jose, CA, USA) with a 4x objective after determining the appropriate exposure time for each illumination filter. Analysis of the obtained images was performed using CellReporterXpress software v. 2.8.2.669 (Molecular Devices). The cytotoxicity of the compounds was determined using the Cell Scoring Analysis Protocol. […] Expression of MDR markers was determined using the Multi-Wavelength Cell Scoring Analysis Protocol.

[3] = tested on: ABCB1 expression in NCI-H460/R cells; experiment: as above; conditions: five concentrations, 24 h
Procedure: as §4, §7, §6, §8

[4] = tested on: ABCB1 expression in NCI-H460 cells; experiment: as above; conditions: five concentrations, 24 h
Procedure: as §4, §7, §6, §8

[5] = tested on: ABCG2 expression in cancer cells (CK8/18+); experiment: Immunofluorescence assay of ABCG2 expression in patient-derived NSCLC cultures; conditions: 7 days
Procedure: as §1, §2, §3, §4, §5, §6

NCI-H460/R cells = experiment: Cytotoxicity by immunofluorescence cell scoring (cell counts), multidrug-resistant NSCLC cell line; conditions: Homo sapiens, 24 h treatment
Text: Human non-small cell lung carcinoma cells (NCI-H460) were purchased from the American Type Culture Collection (Rockville, MD, USA), and normal embryonic lung fibroblasts (MRC-5) were purchased from the European Collection of Authenticated Cell Cultures (Salisbury, UK). Multidrug-resistant NCI-H460/R cells overexpressing ABCB1 were selected from the NCI-H460 cells after selective pressure with doxorubicin [21]. All the cell lines were maintained in MEM medium (Sigma-Aldrich Chemie GmbH, Taufkirchen, Germany) supplemented with 10% FBS, 2 mM L-glutamine, and antibiotic-antimycotic solution. All the cell lines were maintained at 37 °C in a humidified atmosphere with 5% CO2.
as §4, §7, §6, §8

[6] = tested on: ABCC1 expression in cancer cells (CK8/18+); experiment: Immunofluorescence assay of ABCC1 expression in patient-derived NSCLC cultures; conditions: 7 days
Procedure: as §1, §2, §3, §4, §5, §6

[7] = tested on: Non-cancer cells (CK8/18-) of patient-derived NSCLC cultures; experiment: Cytotoxicity in patient-derived NSCLC cultures, non-cancer cells; conditions: Homo sapiens, 168 h, 7 days treatment
Procedure: as §1, §2, §3, §4, §5, §6

[8] = culture TR58, cancer cells (CK8/18+)
[9] = culture TR64, cancer cells (CK8/18+)
[10] = culture TR65, cancer cells (CK8/18+)
[11] = culture TR84, cancer cells (CK8/18+)
[12] = culture TR87, cancer cells (CK8/18+)
[13] = MRC-5 (co-culture with NCI-H460)
[14] = MRC-5 (co-culture with NCI-H460/R)
[15] = NCI-H460/R (co-culture with MRC-5)
[16] = NCI-H460 (co-culture with MRC-5)
[17] = culture TR58, non-cancer cells (CK8/18-)
[18] = culture TR64, non-cancer cells (CK8/18-)
[19] = culture TR65, non-cancer cells (CK8/18-)
[20] = culture TR84, non-cancer cells (CK8/18-)
[21] = culture TR87, non-cancer cells (CK8/18-)

Row | SMILES | IC50 [1, 8] [nM] | IC50 [1, 9] [nM] | IC50 [1, 10] [nM] | IC50 [1, 11] [nM] | IC50 [1, 12] [nM] | ABCB1 Expression [2, 13] | ABCB1 Expression [2, 14] | ABCB1 Expression ([2]; MRC-5 monoculture) | ABCB1 Expression [3, 15] | ABCB1 Expression ([3]; NCI-H460/R monoculture) | ABCB1 Expression [4, 16] | ABCB1 Expression ([4]; NCI-H460 monoculture) | ABCG2 expression [5, 8] | ABCG2 expression [5, 9] | ABCG2 expression [5, 10] | ABCG2 expression [5, 11] | ABCG2 expression [5, 12] | IC50 (NCI-H460/R cells; [15]) [nM] | IC50 (NCI-H460/R cells; NCI-H460/R monoculture) [nM] | ABCC1 expression [6, 8] | other results
1 | CC(=O)O[C@@]12CO[C@@H]1C[C@H](O)[C@@]1(C)C(=O)[C@H](O)C3=C(C)[C@@H](OC(=O)[C@H](O)[C@@H](NC(=O)OC(C)(C)C)c4ccccc4)C[C@@](O)([C@@H](OC(=O)c4ccccc4)[C@H]21)C3(C)C [Docetaxel, docetaxel] | 1310 | 1560 | > 5000 | 1850 | > 5000 | no change | no change | no change | no change | no change | increase (An increase in ABCB1 expression of at least 20% at a minimum of one concentration is shown in the table.) | increase (An increase in ABCB1 expression of at least 20% at a minimum of one concentration is shown in the table.) | increase (An increase in ABCB1, ABCC1, or ABCG2 expression of at least 20% at a minimum of one concentration is shown in the table.) | increase (An increase in ABCB1, ABCC1, or ABCG2 expression of at least 20% at a minimum of one concentration is shown in the table.) | no change | increase (An increase in ABCB1, ABCC1, or ABCG2 expression of at least 20% at a minimum of one concentration is shown in the table.) | increase (An increase in ABCB1, ABCC1, or ABCG2 expression of at least 20% at a minimum of one concentration is shown in the table.) | 801 | 704 | no change | ABCC1 expression [6, 9]: increase (An increase in ABCB1, ABCC1, or ABCG2 expression of at least 20% at a minimum of one concentration is shown in the table.); ABCC1 expression [6, 10]: increase (An increase in ABCB1, ABCC1, or ABCG2 expression of at least 20% at a minimum of one concentration is shown in the table.); ABCC1 expression [6, 11]: increase (An increase in ABCB1, ABCC1, or ABCG2 expression of at least 20% at a minimum of one concentration is shown in the table.); ABCC1 expression [6, 12]: increase (An increase in ABCB1, ABCC1, or ABCG2 expression of at least 20% at a minimum of one concentration is shown in the table.); IC50 [7, 17]: 1590 nM; IC50 [7, 18]: 2720 nM; IC50 [7, 19]: 461 nM; IC50 [7, 20]: 182 nM; IC50 [7, 21]: 3050 nM
2 | COc1cc([C@@H]2c3cc4c(cc3[C@@H](O[C@@H]3O[C@@H]5CO[C@@H](C)O[C@H]5[C@H](O)[C@H]3O)[C@H]3COC(=O)[C@H]23)OCO4)cc(OC)c1O [Etoposide, etoposide] | 7130 | 11900 | 25400 | 2980 | 13000 | no change | no change | no change | no change | no change | increase (An increase in ABCB1 expression of at least 20% at a minimum of one concentration is shown in the table.) | increase (An increase in ABCB1 expression of at least 20% at a minimum of one concentration is shown in the table.) | no change | increase (An increase in ABCB1, ABCC1, or ABCG2 expression of at least 20% at a minimum of one concentration is shown in the table.) | increase (An increase in ABCB1, ABCC1, or ABCG2 expression of at least 20% at a minimum of one concentration is shown in the table.) | increase (An increase in ABCB1, ABCC1, or ABCG2 expression of at least 20% at a minimum of one concentration is shown in the table.) | increase (An increase in ABCB1, ABCC1, or ABCG2 expression of at least 20% at a minimum of one concentration is shown in the table.) | 7500 | 7920 | no change | ABCC1 expression [6, 9]: increase (An increase in ABCB1, ABCC1, or ABCG2 expression of at least 20% at a minimum of one concentration is shown in the table.); ABCC1 expression [6, 10]: increase (An increase in ABCB1, ABCC1, or ABCG2 expression of at least 20% at a minimum of one concentration is shown in the table.); ABCC1 expression [6, 11]: increase (An increase in ABCB1, ABCC1, or ABCG2 expression of at least 20% at a minimum of one concentration is shown in the table.); ABCC1 expression [6, 12]: increase (An increase in ABCB1, ABCC1, or ABCG2 expression of at least 20% at a minimum of one concentration is shown in the table.); IC50 [7, 17]: 6490 nM; IC50 [7, 18]: 18100 nM; IC50 [7, 19]: 2080 nM; IC50 [7, 20]: 1010 nM; IC50 [7, 21]: 10200 nM
